Reference: patent US8952024B2, “Herbicidal pyrimidone derivatives” (E I du Pont de Nemours and Company, priority 2009, dated 2015)

Key:
Format in all cases: in vivo
[1] = system: Surinam grass (Brachiaria decumbens); assay: Test B pre-/postemergence plant response
Summary of the method: (§1)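 Plants treated either at seeding (loam/sand soil) or postemergence at 2 to 18 cm height, using a surfactant-containing non-phytotoxic solvent formulation. Evaluation was visual after 13 to 15 days, 0 to 100 scale relative to controls.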

[2] = system: woolly cupgrass (Eriochloa villosa); assay: Test B pre-/postemergence plant response
Summary of the method: as §1

[3] = system: johnsongrass (Sorghum halepense); assay: Test B pre-/postemergence plant response
Summary of the method: as §1

[4] = system: bermudagrass (Cynodon dactylon); assay: Test B pre-/postemergence plant response
Summary of the method: as §1

[5] = system: Italian ryegrass (Lolium multiflorum); assay: Test B pre-/postemergence plant response
Summary of the method: as §1

corn (Zea mays) = assay: Test B pre-/postemergence plant response
Summary of the method: as §1

soybean (Glycine max) = assay: Test B pre-/postemergence plant response
Summary of the method: as §1

[6] = system: velvetleaf (Abutilon theophrasti); assay: Test B pre-/postemergence plant response
Summary of the method: as §1

[7] = system: large crabgrass (Digitaria sanguinalis); assay: Test B pre-/postemergence plant response
Summary of the method: as §1

[8] = system: lambsquarters (Chenopodium album); assay: Test B pre-/postemergence plant response
Summary of the method: as §1

[9] = system: ragweed (common ragweed, Ambrosia elatior); assay: Test B pre-/postemergence plant response
Summary of the method: as §1

[10] = system: yellow nutsedge (Cyperus esculentus); assay: Test B pre-/postemergence plant response
Summary of the method: as §1

[11] = system: blackgrass (Alopecurus myosuroides); assay: Test B pre-/postemergence plant response
Summary of the method: as §1

wild oat (Avena fatua) = assay: Test B pre-/postemergence plant response
Summary of the method: as §1

[12] = system: windgrass (Apera spica-venti); assay: Test B postemergence plant response
Summary of the method: (§2)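 Visual ratings from 0 (no effect) to 100 (complete control), made against controls 13–15 days after treatment, kept in a greenhouse. Compounds were applied postemergence to potted plants at the 1- to 4-leaf stage (2–18 cm).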

[13] = system: canarygrass (Phalaris minor); assay: Test B postemergence plant response
Summary of the method: as §2

[14] = system: chickweed (Stellaria media); assay: Test B postemergence plant response
Summary of the method: as §2

[15] = system: winter barley (Hordeum vulgare); assay: Test B postemergence plant response
Summary of the method: as §2

[16] = 31 g ai/ha, postemergence, scale 0 to 100, 0 is no effect, 100 is complete control
[17] = 250 g ai/ha, Preemergence, 0 to 100 scale
[18] = Postemergence, 62 g ai/ha, scale 0 (no effect) to 100 (complete control), 13 to 15 days
[19] = Postemergence, 125 g ai/ha, visual rating after 13 to 15 days, scale 0 (no effect) to 100 (complete control)
[20] = Postemergence, 250 g ai/ha, scale 0 to 100 (0 no effect, 100 complete control)
[21] = Preemergence, 31 g ai/ha, scale 0 to 100 (0 no effect, 100 complete control)
[22] = Preemergence, 125 g ai/ha, 0 to 100 scale
[23] = Preemergence, 62 g ai/ha, scale 0 to 100, 0 no effect, 100 complete control

## Cc1ccc(F)c(-n2c(-c3ccccc3)ncc(C(=O)C3=C(O)CCCC3=O)c2=O)c1 [Compound 51]
[1]; [16]
  Plant response rating, Surinam Grass: 80
[1]; [17]
  Plant response rating, Surinam Grass: 100
[1]; [18]
  Plant response rating, Surinam Grass: 85
[1]; [19]
  Plant response rating, Surinam Grass: 90
[1]; [20]
  Plant response rating, Surinam Grass: 90
[1]; [21]
  Plant response rating, Surinam Grass: 95
[1]; [22]
  Surinam Grass plant response rating: 98
[2]; [16]
  Plant response rating, Cupgrass, Woolly: 75
[2]; [17]
  Plant response rating, Cupgrass, Woolly: 85
[2]; [18]
  Plant response rating, Cupgrass, Woolly: 75
[2]; [19]
  Plant response rating, Cupgrass, Woolly: 80
[2]; [20]
  Plant response rating, Cupgrass, Woolly: 90
[2]; [21]
  Plant response rating, Cupgrass, Woolly: 10
[2]; [23]
  Plant response rating, Cupgrass, Woolly: 35
[2]; [22]
  Cupgrass, Woolly plant response rating: 75
[3]; [16]
  Plant response rating, Johnsongrass: 75
[3]; [17]
  Plant response rating, Johnsongrass: 80
[3]; [18]
  Plant response rating, Johnsongrass: 75
[3]; [19]
  Plant response rating, Johnsongrass: 85
[3]; [20]
  Plant response rating, Johnsongrass: 98
[3]; [21]
  Plant response rating, Johnsongrass: 0
[3]; [23]
  Plant response rating, Johnsongrass: 5
[3]; [22]
  Johnsongrass plant response rating: 75
[4]; [16]
  Plant response rating, Bermudagrass: 80
[4]; [17]
  Plant response rating, Bermudagrass: 100
[4]; [18]
  Plant response rating, Bermudagrass: 90
[4]; [19]
  Plant response rating, Bermudagrass: 90
[4]; [20]
  Plant response rating, Bermudagrass: 98
[4]; [21]
  Plant response rating, Bermudagrass: 95
[4]; [23]
  Plant response rating, Bermudagrass: 98
[4]; [22]
  Bermudagrass plant response rating: 100
[5]; [16]
  Plant response rating, Ryegrass, Italian: 0
[5]; [17]
  Plant response rating, Ryegrass, Italian: 5
[5]; [18]
  Plant response rating, Ryegrass, Italian: 0
[5]; [19]
  Plant response rating, Ryegrass, Italian: 10
[5]; [20]
  Plant response rating, Ryegrass, Italian: 30
[5]; [21]
  Plant response rating, Ryegrass, Italian: 0
[5]; [22]
  Ryegrass, Italian plant response rating: 0
Corn (Zea mays); [16]
  Plant response rating, Corn: 75
Corn (Zea mays); [17]
  Plant response rating, Corn: 0
Corn (Zea mays); [18]
  Plant response rating, Corn: 80
Corn (Zea mays); [19]
  Plant response rating, Corn: 80
Corn (Zea mays); [20]
  Plant response rating, Corn: 85
Corn (Zea mays); [21]
  Plant response rating, Corn: 0
Corn (Zea mays); [23]
  Plant response rating, Corn: 0
Corn (Zea mays); [22]
  Corn plant response rating: 0
Soybean (Glycine max); [16]
  Plant response rating, Soybean: 85
Soybean (Glycine max); [17]
  Plant response rating, Soybean: 85
Soybean (Glycine max); [18]
  Plant response rating, Soybean: 90
Soybean (Glycine max); [19]
  Plant response rating, Soybean: 95
Soybean (Glycine max); [20]
  Plant response rating, Soybean: 95
Soybean (Glycine max); [21]
  Plant response rating, Soybean: 0
Soybean (Glycine max); [22]
  Soybean plant response rating: 80
[6]; [16]
  Plant response rating, Velvetleaf: 80
[6]; [17]
  Plant response rating, Velvetleaf: 100
[6]; [18]
  Plant response rating, Velvetleaf: 85
[6]; [19]
  Plant response rating, Velvetleaf: 90
[6]; [20]
  Plant response rating, Velvetleaf: 95
[6]; [21]
  Plant response rating, Velvetleaf: 75
[6]; [22]
  Velvetleaf plant response rating: 98
[7]; [16]
  Plant response rating, Crabgrass, Large: 80
[7]; [17]
  Plant response rating, Crabgrass, Large: 100
[7]; [18]
  Plant response rating, Crabgrass, Large: 85
[7]; [19]
  Plant response rating, Crabgrass, Large: 85
[7]; [20]
  Plant response rating, Crabgrass, Large: 90
[7]; [21]
  Plant response rating, Crabgrass, Large: 75
[7]; [23]
  Plant response rating, Crabgrass, Large: 98
[7]; [22]
  Crabgrass, Large plant response rating: 100
[8]; [16]
  Plant response rating, Lambsquarters: 75
[8]; [17]
  Plant response rating, Lambsquarters: 98
[8]; [18]
  Plant response rating, Lambsquarters: 90
[8]; [19]
  Plant response rating, Lambsquarters: 95
[8]; [20]
  Plant response rating, Lambsquarters: 98
[8]; [21]
  Plant response rating, Lambsquarters: 95
[8]; [23]
  Plant response rating, Lambsquarters: 98
[8]; [22]
  Lambsquarters plant response rating: 98
[9]; [16]
  Plant response rating, Ragweed: 80
[9]; [17]
  Plant response rating, Ragweed: 90
[9]; [18]
  Plant response rating, Ragweed: 80
[9]; [19]
  Plant response rating, Ragweed: 90
[9]; [20]
  Plant response rating, Ragweed: 95
[9]; [21]
  Plant response rating, Ragweed: 65
[9]; [22]
  Ragweed plant response rating: 80
[10]; [16]
  Plant response rating, Nutsedge, Yellow: 60
[10]; [17]
  Plant response rating, Nutsedge, Yellow: 90
[10]; [18]
  Plant response rating, Nutsedge, Yellow: 65
[10]; [19]
  Plant response rating, Nutsedge, Yellow: 75
[10]; [20]
  Plant response rating, Nutsedge, Yellow: 80
[10]; [21]
  Plant response rating, Nutsedge, Yellow: 55
[10]; [22]
  Nutsedge, Yellow plant response rating: 85
[11]; [16]
  Plant response rating, Blackgrass: 0
[11]; [17]
  Plant response rating, Blackgrass: 20
[11]; [18]
  Plant response rating, Blackgrass: 30
[11]; [19]
  Plant response rating, Blackgrass: 50
[11]; [20]
  Plant response rating, Blackgrass: 55
[11]; [21]
  Plant response rating, Blackgrass: 0
[11]; [23]
  Plant response rating, Blackgrass: 0
[11]; [22]
  Blackgrass plant response rating: 10
Wild oat (Avena fatua); [16]
  Plant response rating, Oat, Wild: 60
Wild oat (Avena fatua); [17]
  Plant response rating, Oat, Wild: 0
Wild oat (Avena fatua); [18]
  Plant response rating, Oat, Wild: 60
Wild oat (Avena fatua); [19]
  Plant response rating, Oat, Wild: 60
Wild oat (Avena fatua); [20]
  Plant response rating, Oat, Wild: 90
Wild oat (Avena fatua); [21]
  Plant response rating, Oat, Wild: 0
Wild oat (Avena fatua); [22]
  Oat, Wild plant response rating: 0
[12]; [16]
  Plant response rating, Windgrass: 50
[12]; [18]
  Plant response rating, Windgrass: 60
[12]; [19]
  Plant response rating, Windgrass: 60
[12]; [20]
  Plant response rating, Windgrass: 85
[13]; [16]
  Plant response rating, Canarygrass: 60
[13]; [18]
  Plant response rating, Canarygrass: 60
[13]; [19]
  Plant response rating, Canarygrass: 60
[13]; [20]
  Plant response rating, Canarygrass: 98
[14]; [16]
  Plant response rating, Chickweed: 80
[14]; [18]
  Plant response rating, Chickweed: 80
[14]; [19]
  Plant response rating, Chickweed: 85
[14]; [20]
  Plant response rating, Chickweed: 95
[15]; [16]
  Plant response rating, Barley: 5
[15]; [18]
  Plant response rating, Barley: 25
[15]; [19]
  Plant response rating, Barley: 30
[15]; [20]
  Plant response rating, Barley: 50
